Data reported in patent publication US7713960B2, “Inhibition of the Raf/Mek/P-Erk pathway for treating cancer” (University of South Florida, priority 2005, dated 2010).
Where a name gives a salt, the structure may show the parent alone.

Tests used:
P-Erk 1/2 [1] = experiment: Growth factor (EGF) stimulation of P-Erk 1/2, MDA-MB-231 cells; assay type: cell-based, human
SNB-19 cells = experiment: Anchorage-dependent growth (MTT assay), SNB-19; assay type: cell-based, human; details: n = 3
Method: MTT Assay—2000 cells per well were plated into 96 well tissue culture plates, and the cells were allowed to attach overnight at 37° C. with 10% CO2. Cells were then treated with increasing concentrations of ARA-211, or vehicle (DMSO) and incubated for four days. At that time treatment medium was removed and replaced with 100 μl of lmg/ml MTT (Sigma-Aldrich, St. Louis, Mo.) in media and incubated at 37° C., 10% CO2 for 3 hours. After 3 hours the MTT media was removed and replaced with 100 μl/well of DMSO, rocked at room temperature for 5 minutes, then absorbance read at 540 nm on a micro-plate reader.

c-Raf-1 = molecular target: T1, c-Raf-1 (Homo sapiens, UniProt P04049); experiment: In vitro kinase assay, c-Raf-1 immunoprecipitated from MDA-MB-231 cells; assay type: biochemical; details: immunoprecipitated kinase treated in vitro, 10 μM
T1 construct: c-Raf-1 and Mek-1, immunoprecipitated from MDA-MB-231 cells; endogenous in cells; host or cells: MDA-MB-231
Method: In Vitro Kinase Assays—MDA-MB-231 cells (2×10^6) were lysed for 30 minutes at 4° C. in RIPA-150 buffer (10 mM Tris pH 7.5, 150 mM NaCl, 10% glycerol, 5 mM EDTA, 1% Triton X-100, 0.1% SDS, 100 μM sodium orthovanadate, 1 μM aprotinin, 10 μM leupeptin, 10 μM antipain). Cell debris was pelleted at 13000 rpm for 15 minutes at 4° C. and the lysate was rocked overnight with 10 μg of either c-Raf or MEK antibodies (Santa Cruz Biotechnologies, Santa Cruz, Calif.). 25 μl of protein A/G PLUS agarose (Santa Cruz Biotechnology) was then added and rocked for 4 hours at 4° C. Samples were spun at 2000 rpm for 5 minutes to collect the agarose beads, which were then washed four times with lysis buffer. On the final wash each pellet was divided into 5. […]

ACHN cells = experiment: Total cellular cAMP measurement, ACHN; assay type: cell-based, human
Method: (§1) Total cellular cAMP measurement—The measurement of total cellular cAMP was done using a cAMP Biotrak ™ Enzymeimmunoassay (EIA) system (Amersham Biosciences, Piscataway, N.J.) according to the manufacturer's protocol. Briefly, 2000 cells were plated into each well of a 96 well plate. The next day cells were treated with increasing concentrations of ARA-211 or with vehicle for one hour. Alternatively, MDA-MB-231 cells were pre-treated with antagonists to the α1 (Prazosin, Sigma), α2 (Yohimbine, Sigma), β1 (Metoprolol, Sigma), and β2 (ICI 118.551, Sigma) adrenergic receptors at 100 nM for 15 minutes followed by treatment with 10 μM ARA-211 for 45 minutes. Cells were then lysed directly in the wells using the supplied lysis buffer. The lysate was transferred to a 96-well cAMP ELISA plate, and results were quantified using a Wallac Victor 2 plate reader.

protein kinase A (PKA) = experiment: PKA kinase assay, MDA-MB-231 cells; assay type: cell-based, human
Method: PKA Kinase Assay—PKA kinase assays were performed with the SignaTECT® cAMP-Dependent Protein Kinase (PKA) Assay System (Promega, Madison Wis.) according to the manufacturer's protocol. Briefly, cells were plated (5×10^6) into 100 mm dishes and treated the next day with ARA-211, H-89 (EMD Biosciences), or vehicle. Cells were lysed using a Dounce homogenizer and lysates were incubated in the supplied kinase reaction buffer, with ^32P-ATP and biotin labeled PKA peptide substrate for 5 min at 37° C. Once the reactions were quenched they were spotted onto streptavidin membranes and ^32P-ATP transfer was measured via scintillation counter.

P-Erk 1/2 [2] = experiment: P-Erk 1/2 levels (Western blotting), A-549; assay type: cell-based, human
Method: (§2) Western Blotting—Treated cell samples were lysed in 30 mM HEPES, 10 mM NaCl, 5 mM MgCl2, 25 mM NaF, 1 mM EGTA, 1% Triton-X-100, 10% Glycerol, 2 mM Sodium orthovanidate, 10 μg/mL aprotinin, 10 μg/mL soybean trypsin inhibitor, 25 μg/mL leupeptin, 2 mM phenylmethylsulfonylfluoride (PMSF), 6.4 mg/mL p-nitrophenylphosphate for 30 minutes at 4° C., and proteins run on SDS-PAGE gels then transferred to nitrocellulose membranes. Membranes were blocked in either 5% milk in PBS, pH 7.4, containing 0.1% Tween-20 (PBS-T) or 1% BSA in TBS, pH 7.5, containing 0.1% Tween-20 (TBS-T). Phospho-STAT3 and phospho-AKT antibodies were diluted in 1% BSA in TBS-T while phospho-c-Raf, phospho-Mek, and phospho-p44/p42 MAPK antibodies (Cell Signaling) were diluted in 5% milk in PBS-T for either 1 hour at room temperature or overnight at 4° C. HRP-conjugated secondary antibodies (Jackson ImmunoResearch, West Grove, Pa.) were diluted in 5% milk in PBS-T or TBS-T at a 1:1000 dilution for one hour at room temperature. Western blots results were visualized using enhanced chemiluminescence. Stripping of the membranes for reblotting was done using stripping buffer (62.5 mM Tris pH 7.6, 2% SDS, 0.7% 2-mercaptoethanol) at 50° C. for 30 minutes.

P-Erk 1/2 [3] = experiment: P-Erk 1/2 levels (Western blotting), MDA-MB-231; assay type: cell-based, human
Method: as §2

P-Erk 1/2 [4] = experiment: P-Erk 1/2 levels, MCF-7; assay type: cell-based, human; details: MCF-7 (breast)
Method: as §2

P-Erk 1/2 [5] = experiment: P-Erk 1/2 levels (Western blotting), ACHN; assay type: cell-based, human
Method: as §2

P-p38 = P-p38 levels (Western blotting), MDA-MB-231; assay type: cell-based, human
MDA-MB-231 cells = experiment: Total cellular cAMP measurement, MDA-MB-231; assay type: cell-based, human
Method: as §1

A-549 cells = experiment: Total cellular cAMP measurement, A-549; assay type: cell-based, human
Method: as §1

T1 sequence (P04049 whole entry): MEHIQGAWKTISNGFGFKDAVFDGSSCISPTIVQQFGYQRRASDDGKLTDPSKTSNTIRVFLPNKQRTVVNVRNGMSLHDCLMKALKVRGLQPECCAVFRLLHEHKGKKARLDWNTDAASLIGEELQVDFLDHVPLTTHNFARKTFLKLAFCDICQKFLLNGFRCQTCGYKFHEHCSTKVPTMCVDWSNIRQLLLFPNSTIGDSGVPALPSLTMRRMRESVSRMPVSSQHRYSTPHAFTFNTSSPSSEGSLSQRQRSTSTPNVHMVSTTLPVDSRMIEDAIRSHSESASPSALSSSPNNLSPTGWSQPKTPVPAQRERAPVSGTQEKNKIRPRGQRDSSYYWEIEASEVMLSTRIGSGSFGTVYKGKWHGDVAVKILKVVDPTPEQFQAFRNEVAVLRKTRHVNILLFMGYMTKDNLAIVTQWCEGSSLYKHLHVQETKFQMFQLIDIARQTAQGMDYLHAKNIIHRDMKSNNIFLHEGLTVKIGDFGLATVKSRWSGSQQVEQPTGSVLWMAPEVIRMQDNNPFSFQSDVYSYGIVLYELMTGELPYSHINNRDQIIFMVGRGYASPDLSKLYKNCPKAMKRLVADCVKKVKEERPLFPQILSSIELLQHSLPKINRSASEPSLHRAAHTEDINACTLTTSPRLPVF

in vitro c-Raf-1 kinase activity (c-Raf-1): did not inhibit
cAMP (Fold Induction) (ACHN cells): 16.5 ± 3.2 Fold
cAMP (Fold Induction) (MDA-MB-231 cells): 16.7 ± 5.4 Fold
cAMP (Fold Induction) (A-549 cells): 1.3 ± 0.3 Fold
Structure (SMILES): CC(C)(C)NCC(O)c1ccc(O)c(CO)n1 (stereo not shown) [ARA-211, 2-hydroxymethyl-3-hydroxy-6-(1-hydroxy-2-tert-butylaminoethyl) pyridine, dihydrochloride]
growth factor (EGF) stimulation of P-Erk 1/2 (P-Erk 1/2 [1]): is blocked
Anchorage Dependent Growth (% Inhibition) (SNB-19 cells): 0 (n = 3) %
activation of protein kinase A (PKA) (protein kinase A (PKA)): activation of protein kinase A (PKA)
P-Erk ½ (% Inhibition) (P-Erk 1/2 [2]): 0%
P-Erk ½ (% Inhibition) (P-Erk 1/2 [3]; MDA-MB-231): 100%
levels of P-Erk 1/2 (P-Erk 1/2 [3]; MDA-MB-231, at 10 nM): suppressed potently
inhibition of P-Erk 1/2 in cells ectopically expressing constitutively activated Mek-1 (P-Erk 1/2 [3]; MDA-MB-231 with CA-Mek, 10 μM, 48 hours): resistant
inhibition of P-Erk 1/2 levels (P-Erk 1/2 [4]): did not
P-Erk ½ (% Inhibition) (P-Erk 1/2 [5]): 91%
P-p38 levels (P-p38): not
formation of cAMP (MDA-MB-231 cells): induced the formation of CAMP
adrenergic receptor selectivity (which antagonist blocks cAMP induction) (MDA-MB-231 cells; β1, β2, α1, α2 antagonists 100 nM pre-treatment, 10 μM ARA-211): highly selective for β2 adrenergic receptors
